Patent publication EP1078634A1, “Medicament for inhibiting NF-kB” (Max Zeller Söhne AG, priority 1999, dated 2001)

These molecules were tested against T1, COX-2 (Homo sapiens, UniProt P35354) (assay: COX-2 inhibition in LPS-stimulated Mono Mac 6 cells (Keto PGF 1α ELISA, method of Berg et al.)). Conditions: COX-2 versus COX-1, in words.
T1 construct: Dabei wurden Mono Mac 6-Zellen mit unterschiedlichen Konzentrationen der Testsubstanzen während 30 min inkubiert; endogenous in cells; host or cells: Mono Mac 6 cells, LPS-stimulated
T1 sequence (P35354 18-604): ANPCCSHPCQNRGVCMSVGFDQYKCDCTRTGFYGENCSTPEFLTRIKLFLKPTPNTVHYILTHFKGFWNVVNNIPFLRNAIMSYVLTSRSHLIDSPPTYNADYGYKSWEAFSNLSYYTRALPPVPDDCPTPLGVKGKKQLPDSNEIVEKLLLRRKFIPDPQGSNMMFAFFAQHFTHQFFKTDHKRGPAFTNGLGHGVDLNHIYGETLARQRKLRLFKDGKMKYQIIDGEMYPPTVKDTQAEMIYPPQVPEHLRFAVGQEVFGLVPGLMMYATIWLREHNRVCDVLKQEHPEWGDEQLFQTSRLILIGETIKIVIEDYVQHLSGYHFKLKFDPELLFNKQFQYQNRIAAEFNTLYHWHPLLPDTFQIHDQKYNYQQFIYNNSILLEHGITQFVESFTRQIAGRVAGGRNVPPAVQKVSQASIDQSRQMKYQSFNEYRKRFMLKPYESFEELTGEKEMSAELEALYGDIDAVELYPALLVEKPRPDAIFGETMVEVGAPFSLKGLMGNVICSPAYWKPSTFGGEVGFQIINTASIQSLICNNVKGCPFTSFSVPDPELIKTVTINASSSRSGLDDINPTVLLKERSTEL
Type: cell-based
Experimental: Die Bestimmung der COX-2 inhibitorischen Wirkung der gemäss Beispiel 2 synthetisierten Verbindungen wurde mit Mono Max 6-Zellen nach der Methode von Berg et al., J. Pharmaco. Toxicol.
Dabei wurden Mono Mac 6-Zellen mit unterschiedlichen Konzentrationen der Testsubstanzen während 30 min inkubiert, anschliessend Lipopolysaccharid (LPS, 100 ng/ml) zupipettiert und während weiteren 6 Stunden inkubiert. Anschliessend wurde Arachidonsäure zugegeben (Endkonz. 30 µM), während 15 Min. inkubiert und das gebildete Keto PGF 1α mittels ELISA bestimmt.
In einer Variante wurden Testsubstanz und LPS zeitgleich eingesetzt. Die Messung der COX1 Hemmung erfolgte in HEL-Zellen nach der Methode von Berg et al., J. Pharmacol. Toxicol. […] Dabei wurden HEL Zellen mit unterschiedlichen Konzentrationen der Testsubstanzen während 30 Min. inkubiert, anschliessend Arachidonsäure zugesetzt (Endkonz. 30 uM), während 15 Min. inkubiert und das gebildete Tromboxan B2 mittels ELISA gemessen.

| SMILES | präferentielle Hemmung der induzierbaren COX-2 |
| --- | --- |
| O=C1c2cc(Cl)ccc2-n2c1nc1cc(N3CCOCC3)ccc1c2=O [Verbindung 86] | deutliche präferentielle Hemmung der induzierbaren COX-2 |

These molecules were tested on NF-kB (assay: NF-kB binding to DNA, electrophoretic mobility shift assay (EMSA) with Jurkat T cells). Conditions: TNF-a stimulation.
Type: cell-based
Text: Die in Beispiel 2 hergestellten Substanzen wurden in zellfreien und zellulären Testsystemen nach bekannten Methoden auf NF-kB hemmende Wirkung geprüft. […] Bestimmt wurde die in-vivo und die in-vitro NF-kB Bindung an DNA durch Messung der elektrophoretischen Mobilitätsverschiebung.
Die in vivo Bindung wurde mit Jurkat T-Zellen durchgeführt. Die Zellen wurden während einer Stunde mit verschiedenen Konzentrationen der verschiedenen Extrakte inkubiert und anschliessend mit TNF-a während einer Stunde stimuliert. Total-Protein-Extrakte der Zellen wurden gewonnen und in einem Assay auf elektrophoretische Mobilitätsverschiebung (electrophoretic mobility shift asasy, EMSA) auf NF-kB-bindende Aktivität geprüft.
Die in vitro Bindung wurde ebenfalls mit Jurkat T-Zellen geprüft. Zellextrakte von stimulierten wie unstimulierten Zellen wurden gewonnen. Gleiche Proteinmengen (10-20 µg) wurden 2 Stunden mit Konzentrationsreihen der verschiedenen Isatis-Extrakte inkubiert und schliesslich auf elektrophoretische Mobilitätsverschiebung (EMSA) analysiert.

| SMILES | NF-kB: Grenzkonzentration, bei der eben noch ein Hemmeffekt im EMSA feststellbar ist |
| --- | --- |
| O=C1c2ccccc2-n2c1nc1ccc(Cl)cc1c2=O [Verbindung 5] | 50 µM/Liter |
| O=C1c2cc(Cl)ccc2-n2c1nc1ccccc1c2=O [Verbindung 10] | 5 µM/Liter |
| Nc1ccc2nc3n(c(=O)c2c1)-c1ccc(F)cc1C3=O [Verbindung 20] | 5 µM/Liter |
| Cc1cc(C)c2nc3n(c(=O)c2c1)-c1ccc(F)cc1C3=O [Verbindung 24] | >100 µM/Liter |
| CN1CCN(c2ccc3c(=O)n4c(nc3c2)C(=O)c2cc(F)ccc2-4)CC1 [Verbindung 32] | 10 µM/Liter |
| CCOC(=O)c1ccc2c(c1)C(=O)c1nc3ccccc3c(=O)n1-2 [Verbindung 37] | >100 µM/Liter |
| CC1CN(c2cc3c(cc2F)C(=O)c2nc4ccccc4c(=O)n2-3)CCN1C(=O)OC(C)(C)C (stereo not drawn) [Verbindung 42] | >100 µM/Liter |
| CCCCCCCCS(=O)(=O)c1ccc2c(c1)C(=O)c1nc3c(OC)cccc3c(=O)n1-2 [Verbindung 69] | >100 µM/Liter |
| O=C1c2cc(Cl)ccc2-n2c1nc1cc(N3CCOCC3)ccc1c2=O [Verbindung 86] | 0,5 µM/Liter |
| CN(CC(=O)O)c1ccc2c(=O)n3c(nc2c1)C(=O)c1cc(Cl)ccc1-3 [Verbindung 99] | 1 µM/Liter |
| CN(CCO)c1ccc2c(=O)n3c(nc2c1)C(=O)c1cc(OC(F)(F)F)ccc1-3 [Verbindung 110] | 5 µM/Liter |
